{
  "source": "patent US20050244490A1",
  "about": "“Dosing methods for beta-D-2',3'-dideoxy-2',3'-didehydro-5-fluorocytidine antiviral therapy” (priority 2003, published 2005)",
  "key": {"wild type HIV-RT": {"molecular_target": "T1, wild type HIV-RT (Human immunodeficiency virus type 1 group M subtype B, UniProt P04585)", "T1 construct": "The Ki value for β-D-D4FC-TP for wild type HIV-RT", "assay": "Ki / Km for wild type HIV-RT", "type": "biochemical, HIV-1"}, "[1]": {"assay": "Comparison to other nucleosides: plasma pharmacokinetics"}, "[2]": {"conditions": "human, in vivo"}, "clinical": {"assay": "clinical", "conditions": "in vivo"}, "[3]": {"conditions": "pbmc"}, "[4]": {"test_system": "AZT/3TC-resistant HIV-1 recombinant viruses", "assay": "microbe, parasite or virus in culture", "type": "cell-based", "conditions": "Human immunodeficiency virus 1, read-out: Average IC90 for AZT/3TC-R virus", "experimental": "A panel of 22 viruses was constructed in the HXB2 background using the Protease and RT sequences from clinical isolates to determine Virco Profiling against recombinant clinical isolates (see FIGS. 7a and 7b). Viruses contained 2 to 17 mutations in RT frequently associated with nucleoside resistance, including: M184V, M41L, D67N, T215Y. IC50 values were determined using a high through-put reporter virus assay."}, "[5]": {"test_system": "acutely HIV-1 infected human PBM cells", "assay": "Median effect / combination index study with Racivir", "type": "cell-based", "conditions": "Human immunodeficiency virus 1, PBMC, 120 h, Day 5, assays (1), (2), (3)"}},
  "data": [
    {"smiles": "O=c1[nH]cnc2c1ncn2[C@H]1CC[C@@H](CO)O1", "note": "[DDI, 2′,3′-dideoxyinosine]", "values": [
      {"measurement": "Ki", "setting": "wild type HIV-RT", "result": "80 to 8000", "unit": "nM"},
      {"measurement": "half-life", "setting": "[1]", "result": 1.5, "unit": "h"},
      {"measurement": "Intracellular [Nuc-PPP] in patients", "setting": "[2]", "result": "<0.5", "unit": "µM"},
      {"measurement": "Cmax", "setting": "clinical", "result": 4.2, "unit": "µM"},
      {"measurement": "Intracellular half life", "setting": "[3]", "result": "25 to 40", "unit": "h"},
      {"measurement": "IC90", "setting": "[4]", "result": 12600, "unit": "nM"},
      {"measurement": "EC50", "setting": "[5]; read-out: EC50", "result": 380, "unit": "nM"},
      {"measurement": "EC90", "setting": "[5]; read-out: EC90", "result": 2200, "unit": "nM"}
    ]}
  ]
}
